Values of other authors in patent US20240228667A9, “Methods for Treating Multiple Myeloma” (Celgene Corporation, priority 2021, published 2024).

Tested on: acute myeloid leukemia (AML) at relapse
Details: CT-011 administered alone

Substance: CT-011: anti-PD-1 antibody, a humanized antibody
- response in treating acute myeloid leukemia (AML) at relapse: failed to show response
